The source of these data is EP0130554A1, “Novel, physiologically active substance, process for production thereof and pharmaceutical composition containing the same” (KYOWA HAKKO KOGYO CO., LTD., priority 1983, dated 1985).

In data set [1] the test system is adrenergic receptor. Put plainly: Agonistic/antagonistic activity on adrenergic receptor.
Data set [2] in a line: Solubility in various solvents. The format is physicochemical.
For data set [3], the system named is Atria. Put plainly: Inhibition of isoproterenol-induced positive chronotropic effect in spontaneously beating isolated atria (organ bath). The format is cell-based, guinea pigs. The following applies: Cavia porcellus, 0.5 h; MY336-a 30 µg/ml, added 30 minutes before isoproterenol hydrochloride 10^-9 g/ml; atrial rate, isolated guinea pig atria; read-out: blocked the positive chronotropic effect induced by isoproterenol hydrochloride. How it is done: Method: • Atria were rapidly isolated from guinea pigs (body weight: 500 - 700G) and mounted in an organ bath. The bath was filled with 30 ml oxygenated (95% 02, 5% C02) Krebs-Henseleit's solution at 31il°C. Atria were allowed to beat spontaneously and the contractions were isometrically recorded using force- displacement transducers. Resting force was adjusted to 0.5g. Then, atrial rate was measured. Then, a solution of isoproterenol hydrochloride in a very small amount of water was added thereto to make the isoproterenol hydrochloride concentration to be 10-^9 g/ml, and atrial rate was measured.
The solution was discarded and the bath was filled with krebs-Henseleit's solution, and allowed to stand until the atrial rate was brought back.
Then, a solution of MY336-a in a very small amount of 50% ethanol was added thereto to make the MY336-a concentration to be 30 µg/ml, and 30 minutes thereafter, a solution of isoproterenol hydrochloride in a very small amount of water was added thereto to make the isoproterenol hydrochloride concentration to be 10-^9 g/ml, and atrial rate was measured.

As for `COc1c(C)cc2c(c1O)C(CO)NC(CO)C2` (stereo not drawn) [MY336-a], the “agonistic activity on adrenergic receptor” value in data set [1] is given as “no agonistic activity”. Also, the “antagonistic activity on adrenergic receptor” value in data set [1] was “has an antagonistic activity”. The Solubility entry in data set [2] (in acetone, hexane and ether) is recorded as “sparingly soluble”; in data set [2] (in acidic water), “readily soluble”; in data set [2] (in water and methanol), “soluble”. For the same compound, the inhibition at 30 µg/mL in data set [3] came out at 84.9%.
